Measurements as given in patent US20210000912A1, “Compositions And Methods For Prophylaxis Or Treatment Of Pain” (Interk Peptide Therapeutics Limited, priority 2017, published 2021).

Assays:
[1] = system: CFA-injected mice; test: CFA inflammatory pain model, incapacitance testing
[2] = Resistance to simulated gastric fluid; assay type: in vitro ADME
Procedure: Test 14 Arg peptides consisting of 14 contiguous L- or D-arginine amino acids were tested for resistance to simulated gastric fluid (porcine pepsin in a HCl and NaCl solution) at a pH of 2.01 for a period of 24 hours. Negligible degradation of each peptide was observed by exposure to the simulated gastric fluid over the 24 hour test period.

In the case of N=C(N)NCCC[C@H](NC(=O)[C@H](CCCNC(=N)N)NC(=O)[C@H](CCCNC(=N)N)NC(=O)[C@H](CCCNC(=N)N)NC(=O)[C@H](CCCNC(=N)N)NC(=O)[C@H](CCCNC(=N)N)NC(=O)[C@H](CCCNC(=N)N)NC(=O)[C@H](CCCNC(=N)N)NC(=O)[C@H](CCCNC(=N)N)NC(=O)[C@H](CCCNC(=N)N)NC(=O)[C@H](CCCNC(=N)N)NC(=O)[C@H](CCCNC(=N)N)NC(=O)[C@H](CCCNC(=N)N)NC(=O)[C@@H](N)CCCNC(=N)N)C(N)=O [IK01400, RRRRRRRRRRRRRR-NH2], the “alleviation of inflammatory pain” value ([1]; mice, both doses of the peptide employed) is reported as “alleviated pain”, the hyperactivity ([1]; mice, intra-peritoneal) is reported as “no hyperactivity was observed” and the “time at which peak effect was reached following administration” value ([1]; mice, intra-peritoneal) is reported as over 1 h. For the same molecule, the “effectiveness in incapacitance test, morphine versus IK01400 (8.6 mg/kg)” value ([1]; second hour after administration) was “more effective than morphine”, the remaining at 1 h ([2]; pig, simulated gastric fluid with porcine pepsin, simulated gastric fluid pH 2.01, 1 hr, read-out: % of intact peptide observed) was 99.5% and the remaining at 4 h ([2]; pig, simulated gastric fluid with porcine pepsin, simulated gastric fluid pH 2.01, 4 hrs, read-out: % of intact peptide observed) was 98.5%. For the same molecule, the remaining at 24 h ([2]; pig, simulated gastric fluid with porcine pepsin, simulated gastric fluid pH 2.01, 24 hrs, read-out: % of intact peptide observed) was 98.2% and the “% of intact peptide observed” value ([2]; simulated gastric fluid pH 2.01, time 0) was 98.51%.
